The record followed here is patent publication US10004701B2, “Methods and compositions for treating infection” (UNIVERSITY OF ROCHESTER, priority 2012, dated 2018).

Structures are written as SMILES. Structures can show the parent of a compound that is named as a salt. Where two headings read alike, the source gives them in different places.

What all share (experiment): AK assay 384-well format, Prestwick library screening
Assay [1] has as its system K. pneumoniae. In kind it is cell-based, Klebsiella pneumoniae. To be noted: Klebsiella pneumoniae, 3 h, 50 μM final drug concentration.
Assay [2] concerns S. aureus strain USA300-0114. In kind it is cell-based, Staphylococcus aureus. To be noted: Staphylococcus aureus, USA300, 3 h, 50 μM final drug concentration.
For assay [3], the system named is E. faecium. In kind it is cell-based, Enterococcus faecium. The settings on record: Enterococcus faecium, 3 h, 50 μM final drug concentration.
Assay [4] relates to E. cloacae. In kind it is cell-based, Enterobacter cloacae. To be noted: Enterobacter cloacae, 3 h, 50 μM final drug concentration.
In assay [5] the test system is P. aeruginosa. In kind it is cell-based, Pseudomonas aeruginosa. To be noted: Pseudomonas aeruginosa, 3 h, 50 μM final drug concentration.
Assay [6] relates to A. baumannii strain 98-37-09. It is filed as cell-based, Acinetobacter baumannii. To be noted: Acinetobacter baumannii, 983709, 3 h, 50 μM final drug concentration.
Assay [7] has as its system E. coli. In kind it is cell-based, Escherichia coli. The settings on record: Escherichia coli, 3 h, 50 μM final drug concentration.
Setting [8] is: cutoff for positive-scoring molecules 3-fold increase, read-out: AK-based Prestwick Library Screening Results, K. pneumoniae (fold increase in extracellular AK activity).
[9] abbreviates: cutoff for positive-scoring molecules 3-fold increase, read-out: AK-based Prestwick Library Screening Results, S. aureus (fold increase in extracellular AK activity).
[10] abbreviates: cutoff for positive-scoring molecules 3-fold increase, read-out: AK-based Prestwick Library Screening Results, E. faecium (fold increase in extracellular AK activity).
Setting [11] is: cutoff for positive-scoring molecules 3-fold increase, read-out: AK-based Prestwick Library Screening Results, E. cloacae (fold increase in extracellular AK activity).
[12] abbreviates: cutoff for positive-scoring molecules 3-fold increase, read-out: AK-based Prestwick Library Screening Results, P. aeruginosa (fold increase in extracellular AK activity).
Setting [13] is: cutoff for positive-scoring molecules 3-fold increase, read-out: AK-based Prestwick Library Screening Results, A. baumannii (fold increase in extracellular AK activity).
Where [14] appears, read: cutoff for positive-scoring molecules 3-fold increase, read-out: AK-based Prestwick Library Screening Results, E. coli (fold increase in extracellular AK activity).
Where [15] appears, read: 384-well format, cutoff for positive-scoring molecules 3-fold increase, read-out: AK-based Prestwick Library Screening Results, K. pneumoniae (increase in extracellular AK activity).
[16] abbreviates: 384-well format, cutoff for positive-scoring molecules 3-fold increase, read-out: AK-based Prestwick Library Screening Results, S. aureus (increase in extracellular AK activity).
Setting [17] is: 384-well format, cutoff for positive-scoring molecules 3-fold increase, read-out: AK-based Prestwick Library Screening Results, E. faecium (increase in extracellular AK activity).
Where [18] appears, read: 384-well format, cutoff for positive-scoring molecules 3-fold increase, read-out: AK-based Prestwick Library Screening Results, E. cloacae (increase in extracellular AK activity).
Where [19] appears, read: 384-well format, cutoff for positive-scoring molecules 3-fold increase, read-out: AK-based Prestwick Library Screening Results, P. aeruginosa (increase in extracellular AK activity).
Where [20] appears, read: 384-well format, cutoff for positive-scoring molecules 3-fold increase, read-out: AK-based Prestwick Library Screening Results, A. baumannii (increase in extracellular AK activity).
Where [21] appears, read: 384-well format, cutoff for positive-scoring molecules 3-fold increase, read-out: AK-based Prestwick Library Screening Results, E. coli (increase in extracellular AK activity).

`CNC(=C[N+](=O)[O-])NCCSCc1csc(CN(C)C)n1` [Nizatidine]: the fold induction at 50 µM in assay [1] (setting [8]) is 0.9; in assay [2] (setting [9]) it was 1.2; in assay [3] (setting [10]), 1; in assay [4] (setting [11]) it was 1.7; in assay [5] (setting [12]), 1.2; in assay [6] (setting [13]) it was 1. Also, the fold induction at 50 µM in assay [7] (setting [14]) is 1.3.
Take `COc1cc(C)nc(-n2nc(C)cc2OC)n1` [Epirizole]: the fold induction at 50 µM in assay [1] (setting [15]) came to 0.7; in assay [2] (setting [16]), 2.2; in assay [3] (setting [17]) it was 0.8; in assay [4] (setting [18]) it was 1.2; in assay [5] (setting [19]), 0.8; in assay [6] (setting [20]), 0.9. In addition, the fold induction at 50 µM in assay [7] (setting [21]) was 1.
In the case of `Nc1nc(N)c2nc(-c3ccccc3)c(N)nc2n1` [Triamterene], the fold induction at 50 µM in assay [1] (setting [15]) came to 0.5; in assay [2] (setting [16]), 0.6; in assay [3] (setting [17]) it was 0.7; in assay [4] (setting [18]), 1.2; in assay [5] (setting [19]), 0.6; in assay [6] (setting [20]) it was 1.1. For the same compound, in assay [7] (setting [21]), the fold induction at 50 µM worked out at 0.6.
`CNCCCC1c2ccccc2C=Cc2ccccc21` [Protriptyline hydrochloride]: the fold induction at 50 µM was determined as 1.1 in assay [1] (setting [8]); 2.8 in assay [2] (setting [9]); 1 in assay [3] (setting [10]); 1.4 in assay [4] (setting [11]); 1.2 in assay [5] (setting [12]); 1.1 in assay [6] (setting [13]). For the same compound, the fold induction at 50 µM in assay [7] (setting [14]) is 1.2.
`CC(=O)Oc1ccccc1C(=O)Oc1ccccc1C(=O)O` [Acetylsalicylsalicylic acid]: the fold induction at 50 µM came out at 0.6 in assay [1] (setting [15]); 0.7 in assay [2] (setting [16]); 1 in assay [3] (setting [17]); 0.8 in assay [4] (setting [18]); 0.6 in assay [5] (setting [19]); 0.7 in assay [6] (setting [20]). Also, in assay [7] (setting [21]), the fold induction at 50 µM came out at 0.6.
Take `Cc1cccc(CN2CCN(C(c3ccccc3)c3ccc(Cl)cc3)CC2)c1` (stereo not shown) [Meclozine dihydrochloride]: the fold induction at 50 µM in assay [1] (planktonic, cutoff for positive 3-fold increase, read-out: AK-based Prestwick Library Screening Results, K. pneumoniae (fold increase in extracellular AK activity)) was determined as 0.9; in assay [2] (planktonic, cutoff for positive 3-fold increase, read-out: AK-based Prestwick Library Screening Results, S. aureus (fold increase in extracellular AK activity)) it was 2.1; in assay [3] (planktonic, cutoff for positive 3-fold increase, read-out: AK-based Prestwick Library Screening Results, E. faecium (fold increase in extracellular AK activity)) it was 1.2; in assay [4] (planktonic, cutoff for positive 3-fold increase, read-out: AK-based Prestwick Library Screening Results, E. cloacae (fold increase in extracellular AK activity)) it was 1.4; in assay [5] (planktonic, cutoff for positive 3-fold increase, read-out: AK-based Prestwick Library Screening Results, P. aeruginosa (fold increase in extracellular AK activity)), 1.2; in assay [6] (planktonic, cutoff for positive 3-fold increase, read-out: AK-based Prestwick Library Screening Results, A. baumannii (fold increase in extracellular AK activity)), 1.9. The fold induction at 50 µM in assay [7] (planktonic, cutoff for positive 3-fold increase, read-out: AK-based Prestwick Library Screening Results, E. coli (fold increase in extracellular AK activity)) came out at 1.2.
Regarding `O=C(NCNC(=O)NC1C(=O)NC(=O)N1CO)NC1C(=O)NC(=O)N1CO` (stereo not shown) [Imidurea], the fold induction at 50 µM in assay [1] (planktonic K. pneumoniae, […], read-out: AK-based Prestwick library screening result, K. pneumoniae (fold increase in extracellular AK activity)) was 0.7; in assay [2] (planktonic S. aureus, […], read-out: AK-based Prestwick library screening result, S. aureus (fold increase in extracellular AK activity)), 0.7; in assay [3] (planktonic E. faecium, […], read-out: AK-based Prestwick library screening result, E. faecium (fold increase in extracellular AK activity)), 0.9; in assay [4] (planktonic E. cloacae, […], read-out: AK-based Prestwick library screening result, E. cloacae (fold increase in extracellular AK activity)), 1.2; in assay [5] (planktonic P. aeruginosa, […], read-out: AK-based Prestwick library screening result, P. aeruginosa (fold increase in extracellular AK activity)) it was 0.8; in assay [6] (planktonic A. baumannii, […], read-out: AK-based Prestwick library screening result, A. baumannii (fold increase in extracellular AK activity)), 0.8. Moreover, the fold induction at 50 µM in assay [7] (planktonic E. coli, […], read-out: AK-based Prestwick library screening result, E. coli (fold increase in extracellular AK activity)) was 0.9.
As for `COC(=O)C1=CCCN(C)C1` [Arecoline hydrobromide], the fold induction at 50 µM was 0.4 in assay [1] (planktonic K. pneumoniae, 384-well, […], read-out: AK-based Prestwick Library Screening Results: K. pneumoniae (increase in extracellular AK activity)); 0.4 in assay [2] (planktonic S. aureus, 384-well, […], read-out: AK-based Prestwick Library Screening Results: S. aureus (increase in extracellular AK activity)); 0.9 in assay [3] (planktonic E. faecium, 384-well, […], read-out: AK-based Prestwick Library Screening Results: E. faecium (increase in extracellular AK activity)); 0.3 in assay [4] (planktonic E. cloacae, 384-well, […], read-out: AK-based Prestwick Library Screening Results: E. cloacae (increase in extracellular AK activity)); 0.4 in assay [5] (planktonic P. aeruginosa, 384-well, […], read-out: AK-based Prestwick Library Screening Results: P. aeruginosa (increase in extracellular AK activity)); 0.4 in assay [6] (planktonic A. baumannii, 384-well, […], read-out: AK-based Prestwick Library Screening Results: A. baumannii (increase in extracellular AK activity)). The fold induction at 50 µM in assay [7] (planktonic E. coli, 384-well, […], read-out: AK-based Prestwick Library Screening Results: E. coli (increase in extracellular AK activity)) was found to be 0.4.
With `NS(=O)(=O)c1cc2c(cc1Cl)N=CNS2(=O)=O` [Chlorothiazide], the fold induction at 50 µM in assay [1] (setting [15]) was found to be 0.7; in assay [2] (setting [16]), 0.8; in assay [3] (setting [17]) it was 1; in assay [4] (setting [18]) it was 0.9; in assay [5] (setting [19]) it was 0.9; in assay [6] (setting [20]) it was 0.9. Also, the fold induction at 50 µM in assay [7] (setting [21]) is 0.9.
In the case of `O=c1ccc2cc(O)c(O)cc2o1` [Esculetin], the fold induction at 50 µM came out at 1.2 in assay [1] ([…], read-out: AK-based Prestwick Library Screening Results, K. pneumoniae (fold increase in extracellular AK activity)); 1.1 in assay [2] ([…], read-out: AK-based Prestwick Library Screening Results, S. aureus (fold increase in extracellular AK activity)); 1 in assay [3] ([…], read-out: AK-based Prestwick Library Screening Results, E. faecium (fold increase in extracellular AK activity)); 1.4 in assay [4] ([…], read-out: AK-based Prestwick Library Screening Results, E. cloacae (fold increase in extracellular AK activity)); 0.9 in assay [5] ([…], read-out: AK-based Prestwick Library Screening Results, P. aeruginosa (fold increase in extracellular AK activity)); 1.1 in assay [6] ([…], read-out: AK-based Prestwick Library Screening Results, A. baumannii (fold increase in extracellular AK activity)). For the same compound, in assay [7] ([…], read-out: AK-based Prestwick Library Screening Results, E. coli (fold increase in extracellular AK activity)), the fold induction at 50 µM amounted to 1.4.
